Laboratory results reported in ChEMBL document CHEMBL1148468, “Design and synthesis of novel cyanoguanidine ATP-sensitive potassium channel openers for the treatment of overactive bladder” (Bioorg Med Chem Lett, 2004).

Key:
[1] = molecular target: Sulfonylurea receptors; K-ATP channels (Sus scrofa); experiment: In vitro functional potassium channel opening activity in tissue strips obtained from Landrace pig bladders(LPD)
[2] = molecular target: Sulfonylurea receptor 2, Kir6.2 (Homo sapiens, UniProt O60706+Q14654); experiment: (§1) In vitro ATP-sensitive potassium channel (KATP) activity in cells expressing human KATP channels Kir6.2 and sulfonylurea receptor 2B; type: functional
[3] = molecular target: Sulfonylurea receptor 2, Kir6.2 (Homo sapiens) (UniProt Q14654+O60706); experiment: as §1; type: functional; conditions: filed as antagonist

Sequence of Sulfonylurea receptor 2, Kir6.2 (Q14654 whole entry): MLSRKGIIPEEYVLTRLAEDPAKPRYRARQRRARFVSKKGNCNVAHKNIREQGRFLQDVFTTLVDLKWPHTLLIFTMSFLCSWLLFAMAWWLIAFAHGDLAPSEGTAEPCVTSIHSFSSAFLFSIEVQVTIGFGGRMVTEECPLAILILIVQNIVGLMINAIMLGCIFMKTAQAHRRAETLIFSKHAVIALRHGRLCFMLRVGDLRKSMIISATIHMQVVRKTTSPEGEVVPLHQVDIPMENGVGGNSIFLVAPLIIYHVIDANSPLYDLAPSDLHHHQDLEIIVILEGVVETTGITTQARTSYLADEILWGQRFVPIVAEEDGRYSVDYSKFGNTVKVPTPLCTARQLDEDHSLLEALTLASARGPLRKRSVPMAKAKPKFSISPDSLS
Sequence of Sulfonylurea receptor 2, Kir6.2 (O60706 whole entry): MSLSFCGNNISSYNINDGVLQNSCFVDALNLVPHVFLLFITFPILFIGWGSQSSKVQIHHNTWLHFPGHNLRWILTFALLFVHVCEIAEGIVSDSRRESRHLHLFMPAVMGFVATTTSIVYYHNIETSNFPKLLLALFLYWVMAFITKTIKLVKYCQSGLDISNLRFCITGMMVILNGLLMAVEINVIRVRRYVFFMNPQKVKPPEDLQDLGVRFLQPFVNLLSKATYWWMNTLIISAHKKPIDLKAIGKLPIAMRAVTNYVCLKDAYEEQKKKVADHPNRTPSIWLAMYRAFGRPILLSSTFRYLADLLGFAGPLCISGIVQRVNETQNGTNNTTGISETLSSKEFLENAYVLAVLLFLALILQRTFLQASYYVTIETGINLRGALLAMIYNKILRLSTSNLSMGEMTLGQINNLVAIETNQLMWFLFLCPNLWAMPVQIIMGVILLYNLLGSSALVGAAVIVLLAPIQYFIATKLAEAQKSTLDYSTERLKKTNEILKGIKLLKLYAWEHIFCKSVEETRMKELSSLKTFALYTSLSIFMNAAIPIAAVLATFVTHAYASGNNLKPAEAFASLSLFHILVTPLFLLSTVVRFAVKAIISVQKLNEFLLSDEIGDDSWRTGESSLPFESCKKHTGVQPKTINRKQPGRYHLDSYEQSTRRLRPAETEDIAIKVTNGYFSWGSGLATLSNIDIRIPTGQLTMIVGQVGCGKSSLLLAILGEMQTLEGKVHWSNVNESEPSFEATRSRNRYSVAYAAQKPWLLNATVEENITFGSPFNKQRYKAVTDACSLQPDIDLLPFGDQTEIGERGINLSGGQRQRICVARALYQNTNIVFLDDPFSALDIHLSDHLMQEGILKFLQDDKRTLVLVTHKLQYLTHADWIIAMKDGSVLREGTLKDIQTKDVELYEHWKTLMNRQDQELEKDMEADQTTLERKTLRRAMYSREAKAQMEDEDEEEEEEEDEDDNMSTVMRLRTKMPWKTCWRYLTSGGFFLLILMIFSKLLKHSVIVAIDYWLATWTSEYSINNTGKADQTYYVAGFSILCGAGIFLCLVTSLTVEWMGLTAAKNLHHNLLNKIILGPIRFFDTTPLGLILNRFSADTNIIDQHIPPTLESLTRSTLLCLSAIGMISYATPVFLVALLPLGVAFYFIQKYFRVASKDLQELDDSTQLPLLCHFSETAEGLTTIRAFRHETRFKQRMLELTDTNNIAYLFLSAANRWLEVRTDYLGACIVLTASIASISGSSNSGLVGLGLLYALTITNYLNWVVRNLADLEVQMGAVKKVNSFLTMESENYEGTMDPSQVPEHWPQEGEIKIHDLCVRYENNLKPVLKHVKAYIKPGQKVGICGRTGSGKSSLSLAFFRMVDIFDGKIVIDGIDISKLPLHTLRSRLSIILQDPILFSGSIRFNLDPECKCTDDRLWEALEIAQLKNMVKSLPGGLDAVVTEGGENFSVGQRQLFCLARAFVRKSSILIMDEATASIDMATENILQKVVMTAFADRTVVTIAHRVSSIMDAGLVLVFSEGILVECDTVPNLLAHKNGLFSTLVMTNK

| Compound | EC50 [1] [µM] | EC50 [2] [µM] | Log EC50 [3] |
| --- | --- | --- | --- |
| CC(Cl)(Cl)[C@@H](NC(=O)c1ccc(Cl)cc1)N/C(=N/C#N)Nc1cccnc1 | 5.01 | 0.316 | – |
| CC(Cl)(Cl)C(NC(=O)c1cccc(F)c1)N/C(=N/c1cccnc1)NC#N (stereo not drawn) | – | 3.98 | – |
| CC(Cl)(Cl)C(NC(=O)c1cccc(Cl)c1)N/C(=N/c1cccnc1)NC#N (stereo not drawn) | 1.58 | 3.16 | – |
| CC(C)(C)C(NC(=O)c1ccc(Cl)cc1)N/C(S)=N/c1cccnc1 (stereo not drawn) | 7.94 | 2.51 | – |
| O=C(NC(NC(=S)Nc1cccnc1)C(Cl)(Cl)Cl)c1ccc(Cl)cc1 (stereo not drawn) | 2 | 0.794 | – |
| CCCCC(C)(C)C(NC(=O)c1ccc(Cl)cc1)N/C(=N/c1cccnc1)NC#N (stereo not drawn) | – | > 100 | – |
| CCC(CC)(CCC#N)C(NC(=O)c1ccc(Cl)cc1)NC(=NC#N)Nc1cccnc1 (stereo not drawn) | 5.01 | 5.01 | – |
| CC(Cl)(Cl)C(NC(=O)c1cc(F)cc(F)c1)N/C(=N/c1cccnc1)NC#N (stereo not drawn) | 5.01 | 3.98 | – |
| CC(Cl)(Cl)C(NC(=O)c1ccc(Cl)cc1)NC(=NC#N)Nc1cccnc1 (stereo not drawn) | 2.51 | 2 | – |
| CC(C)(C)C(NC(=O)c1ccc(Cl)cc1)N/C(=N/c1cccnc1)NC#N (stereo not drawn) | 20 | 6.31 | – |
| CC(Cl)(Cl)C(NC(=O)c1ccc(Br)cc1)N/C(=N/c1cccnc1)NC#N (stereo not drawn) | – | 10 | – |
| CN(C)S(=O)(=O)N/C(=N\C(NC(=O)c1ccc(Cl)cc1)C(C)(C)C)Nc1cccnc1 (stereo not drawn) | – | > 100 | – |
| Cc1ccc(C(=O)NC(/N=C(\NC#N)Nc2cccnc2)C(C)(Cl)Cl)cc1 (stereo not drawn) | – | 2.51 | – |
| Cc1cccc(C(=O)NC(/N=C(\NC#N)Nc2cccnc2)C(C)(Cl)Cl)c1 (stereo not drawn) | – | 5.01 | – |
| CC(Cl)(Cl)[C@H](NC(=O)c1ccc(Cl)cc1)N/C(=N/c1cccnc1)NC#N | 20 | 10 | – |
| N#CN/C(=N\C(NC(=O)c1ccc(Cl)cc1)C(Cl)(Cl)Cl)Nc1cccnc1 (stereo not drawn) | 2 | 1 | – |
| CC(C)(C)C(NC(=O)c1ccc(Cl)cc1)NC(Nc1cccnc1)=C(C#N)C#N (stereo not drawn) | – | – | Antagonist |
| C=CCC(C)(C)C(NC(=O)c1ccc(Cl)cc1)NC(=NC#N)Nc1cccnc1 (stereo not drawn) | – | 20 | – |
| CC(C)(C)C(NC(=O)c1ccc(Cl)cc1)N/C(=C/[N+](=O)[O-])Nc1cccnc1 (stereo not drawn) | – | > 100 | – |
| CC(C)(C)C(NC(=O)c1ccc(Cl)cc1)N/C(=N/c1cccnc1)NS(N)(=O)=O (stereo not drawn) | – | > 100 | – |
| C=CC(C)(C)CC(NC(=O)c1ccc(Cl)cc1)N/C(=N/c1cccnc1)NC#N (stereo not drawn) | – | 10 | – |
| CC(C)(C)C(NC(=O)c1ccc(Cl)cc1)N/C(=N/c1cccnc1)N[N+](=O)[O-] (stereo not drawn) | 7.94 | 31.6 | – |
